These molecules were tested against T1, oestrogen receptor (ER) (Homo sapiens, UniProt P03372) (assay: Anti-oestrogenic action in MVLN cells (inhibition of estradiol-induced luciferase, transactivation antagonism)). Details: inhibition of estradiol-induced luciferase activity, read-out: Anti-oestrogenic action in vitro: MVLN transactivation antagonism IC50.
T1 construct: These MVLN cells express, along with the functional oestrogen receptor (ER), a reporter construct; endogenous in cells; host or cells: MVLN cells (MCF7 derivative with ER-responsive luciferase reporter)
T1 sequence (P03372 1-595): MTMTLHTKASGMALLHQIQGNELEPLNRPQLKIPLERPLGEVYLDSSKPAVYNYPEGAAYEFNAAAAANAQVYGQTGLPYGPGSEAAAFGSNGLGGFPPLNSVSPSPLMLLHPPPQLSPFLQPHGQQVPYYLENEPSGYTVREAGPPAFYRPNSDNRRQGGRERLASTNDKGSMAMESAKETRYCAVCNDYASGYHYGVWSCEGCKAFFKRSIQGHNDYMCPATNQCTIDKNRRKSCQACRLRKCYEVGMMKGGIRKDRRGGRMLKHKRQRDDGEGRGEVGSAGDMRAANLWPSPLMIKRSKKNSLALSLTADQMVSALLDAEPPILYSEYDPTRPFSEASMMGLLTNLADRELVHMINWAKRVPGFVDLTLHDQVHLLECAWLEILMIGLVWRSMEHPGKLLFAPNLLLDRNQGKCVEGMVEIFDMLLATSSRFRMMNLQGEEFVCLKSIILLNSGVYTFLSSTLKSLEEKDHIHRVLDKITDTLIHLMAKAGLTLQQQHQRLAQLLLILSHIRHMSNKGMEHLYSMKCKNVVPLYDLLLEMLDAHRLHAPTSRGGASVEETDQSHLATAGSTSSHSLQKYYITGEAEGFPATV
Assay type: cell-based
From the text: The anti-oestrogenic action of the claimed pharmacological compounds was investigated in so-called MVLN cells in vitro. MVLN cells are derivatives of the hormone-responsive MCF7 breast cancer cells known by a person skilled in the art. These MVLN cells express, along with the functional oestrogen receptor (ER), a reporter construct, which under ER-activation expresses luciferase. Determination of the activity of the induced luciferase permits a direct conclusion on the oestrogen properties of substances. To investigate the anti-oestrogenic properties of the pharmacological compounds, they were investigated in the presence of oestrogen for their potential for inhibiting the luciferase signal induced by estradiol.
The claimed pharmacological test substances were investigated in MVLN cells for their anti-oestrogenic potential, as described (see Table 2).

Point of comparison: `CN(CCCCCCC1=C(c2cccc(O)c2)CCCc2cc(O)ccc21)CCCCC[S+]([O-])CCCC(F)(F)C(F)(F)F` (racemic) [Example 16, 8-(3-Hydroxyphenyl)-9-[6-(methyl{5-[(RS)-(4,4,5,5,5-pentafluoropentyl)sulphinyl]pentyl}amino)hexyl]-6,7-dihydro-5H-benzo[7]annulen-3-ol], IC50 2 nM. Against it:
- CN(CCCCCC1=C(c2cccc(O)c2)CCCc2cc(O)ccc21)CCC[S+]([O-])CCCC(F)(F)C(F)(F)F (racemic) [Example 4, 8-(3-Hydroxyphenyl)-9-[5-(methyl{3-[(RS)-(4,4,5,5,5-pentafluoropentyl)sulphinyl]propyl}amino)pentyl]-6,7-dihydro-5H-benzo[7]annulen-3-ol] — 1.5-fold higher, 3 nM
- CN(CCCCCC1=C(c2cccc(O)c2)CCCc2cc(O)ccc21)CCCCC[S+]([O-])CCCC(F)(F)C(F)(F)F (racemic) [Example 8, 8-(3-Hydroxyphenyl)-9-[5-(methyl{5-[(RS)-(4,4,5,5,5-pentafluoropentyl)sulphinyl]pentyl}amino)pentyl]-6,7-dihydro-5H-benzo[7]annulen-3-ol] — 4-fold higher, 8 nM
- CN(CCCCCC[S+]([O-])CCCC(F)(F)C(F)(F)F)CCCCCC1=C(c2cccc(O)c2)CCCc2cc(O)ccc21 (racemic) [Example 10, 8-(3-Hydroxyphenyl)-9-[5-(methyl{6-[(RS)-(4,4,5,5,5-pentafluoropentyl)sulphinyl]hexyl}amino)pentyl]-6,7-dihydro-5H-benzo[7]annulen-3-ol] — the same, 2 nM
- CN(CCCCCCC1=C(c2cccc(O)c2)CCCc2cc(O)ccc21)CCC[S+]([O-])CCCC(F)(F)C(F)(F)F (racemic) [Example 12, 8-(3-Hydroxyphenyl)-9-[6-(methyl{3-[(RS)-(4,4,5,5,5-pentafluoropentyl)sulphinyl]propyl}amino)hexyl]-6,7-dihydro-5H-benzo[7]annulen-3-ol] — the same, 2 nM
- CN(CCCCCCC1=C(c2cccc(O)c2)CCCc2cc(O)ccc21)CCCC[S+]([O-])CCCC(F)(F)C(F)(F)F (racemic) [Example 14, 8-(3-Hydroxyphenyl)-9-[6-(methyl{4-[(RS)-(4,4,5,5,5-pentafluoropentyl)sulphinyl]butyl}amino)hexyl]-6,7-dihydro-5H-benzo[7]annulen-3-ol] — the same, 2 nM
- CN(CCCCCCC1=C(c2cccc(O)c2)CCCc2cc(O)ccc21)CCCCCC[S+]([O-])CCCC(F)(F)C(F)(F)F (racemic) [Example 18, 8-(3-Hydroxyphenyl)-9-[6-(methyl{6-[(RS)-(4,4,5,5,5-pentafluoropentyl)sulphinyl]hexyl}amino)hexyl]-6,7-dihydro-5H-benzo[7]annulen-3-ol] — the same, 2 nM
- CN(CCCCCCC1=C(c2ccc(O)cc2)CCCc2cc(O)ccc21)CCC[S+]([O-])CCCC(F)(F)C(F)(F)F (racemic) [Example 26, 8-(4-Hydroxyphenyl)-9-[6-(methyl{3-[(RS)-(4,4,5,5,5-pentafluoropentyl)sulphinyl]propyl}amino)hexyl]-6,7-dihydro-5H-benzo[7]annulen-3-ol] — 2-fold lower, 1 nM
- CN(CCCCCCC1=C(c2ccc(F)c(O)c2)CCCc2cc(O)ccc21)CCCC[S+]([O-])CCCC(F)(F)C(F)(F)F (racemic) [Example 30, 8-(4-Fluoro-3-hydroxyphenyl)-9-[6-(methyl{4-[(RS)-(4,4,5,5,5-pentafluoropentyl)sulphinyl]butyl}amino)hexyl]-6,7-dihydro-5H-benzo[7]annulen-3-ol] — the same, 2 nM
- CN(CCCCCCC1=C(c2ccc(F)c(O)c2)CCCc2cc(O)ccc21)CCCCC[S+]([O-])CCCC(F)(F)C(F)(F)F (racemic) [Example 32, 8-(4-Fluoro-3-hydroxyphenyl)-9-[6-(methyl{5-[(RS)-(4,4,5,5,5-pentafluoropentyl)sulphinyl]pentyl}amino)hexyl]-6,7-dihydro-5H-benzo[7]annulen-3-ol] — 1.5-fold higher, 3 nM
- CN(CCCCCCC1=C(c2ccc(F)c(O)c2)CCCc2cc(O)ccc21)CCCCCC[S+]([O-])CCCC(F)(F)C(F)(F)F (racemic) [Example 34, 8-(4-Fluoro-3-hydroxyphenyl)-9-[6-(methyl{6-[(RS)-(4,4,5,5,5-pentafluoropentyl)sulphinyl]hexyl}amino)hexyl]-6,7-dihydro-5H-benzo[7]annulen-3-ol] — 2.5-fold higher, 5 nM
- CN(CCCCCC1=C(c2cccnc2)CCCc2cc(O)ccc21)CCC[S+]([O-])CCCC(F)(F)C(F)(F)F (racemic) [Example 40, 9-[5-(Methyl{3-[(RS)-(4,4,5,5,5-pentafluoropentyl)sulphinyl]propyl}amino)pentyl]-8-(3-pyridyl)-6,7-dihydro-5H-benzo[7]annulen-3-ol] — 14-fold higher, 27 nM
- CN(CCCCCCC1=C(c2cccnc2)CCCc2cc(O)ccc21)CCC[S+]([O-])CCCC(F)(F)C(F)(F)F (racemic) [Example 43, 9-[6-(Methyl{3-[(RS)-(4,4,5,5,5-pentafluoropentyl)sulphinyl]propyl}amino)hexyl]-8-(3-pyridyl)-6,7-dihydro-5H-benzo[7]annulen-3-ol] — 4-fold higher, 8 nM
- [O-][S+](CCCNCCCCCC1=C(c2ccccc2)CCCc2cc(O)ccc21)CCCC(F)(F)C(F)(F)F (racemic) [Example 50, 9-[5-({3-[(RS)-(4,4,5,5,5-Pentafluoropentyl)sulphinyl]propyl}amino)pentyl]-8-phenyl-6,7-dihydro-5H-benzo[7]annulen-3-ol] — 3.5-fold higher, 7 nM
- CN(CCCCCCC1=C(c2cccc(O)c2)CCCc2cc(O)ccc21)CCC[S+]([O-])CCC(F)(F)F (racemic) [Example 55, 8-(3-Hydroxyphenyl)-9-[6-(methyl{3-[(RS)-(3,3,3-trifluoropropyl)sulphinyl]propyl}amino)hexyl]-6,7-dihydro-5H-benzo[7]annulen-3-ol] — the same, 2 nM
- CN(CCCCCCC1=C(c2ccccc2)CCCc2cc(O)ccc21)CCC[S+]([O-])CCC(F)(F)F (racemic) [Example 59, 9-[6-(Methyl{3-[(RS)-(3,3,3-trifluoropropyl)sulphinyl]propyl}amino)hexyl]-8-phenyl-6,7-dihydro-5H-benzo[7]annulen-3-ol] — 5-fold higher, 10 nM
- CN(CCCCCCC1=C(c2ccccc2)CCCc2cc(O)ccc21)CCC[S+]([O-])CCC(F)(F)C(F)(F)F (racemic) [Example 61, 9-[6-(Methyl{3-[(RS)-(3,3,4,4,4-pentafluorobutyl)sulphinyl]propyl}amino)hexyl]-8-phenyl-6,7-dihydro-5H-benzo[7]annulen-3-ol] — 4.5-fold higher, 9 nM
- CN(CCCCCCC1=C(c2ccccc2)CCCc2cc(O)ccc21)CCCC[S+]([O-])CCCC(F)(F)C(F)(F)F (racemic) [Example 66, 9-[6-(Methyl{4-[(RS)-(4,4,5,5,5-pentafluoropentyl)sulphinyl]butyl}amino)hexyl]-8-phenyl-6,7-dihydro-5H-benzo[7]annulen-3-ol] — 2.5-fold higher, 5 nM
- CCN(CCCCCCC1=C(c2ccccc2)CCCc2cc(O)ccc21)CCC[S+]([O-])CCCC(F)(F)C(F)(F)F (racemic) [Example 68, 9-[6-(Ethyl{3-[(RS)-(4,4,5,5,5-pentafluoropentyl)sulphinyl]propyl}amino)hexyl]-8-phenyl-6,7-dihydro-5H-benzo[7]annulen-3-ol] — 2.5-fold higher, 5 nM
- [O-][S+](CCCN(CCO)CCCCCCC1=C(c2ccccc2)CCCc2cc(O)ccc21)CCCC(F)(F)C(F)(F)F (racemic) [Example 70, 9-{6-[(2-Hydroxyethyl){3-[(RS)-(4,4,5,5,5-pentafluoropentyl)sulphinyl]propyl}amino]hexyl}-8-phenyl-6,7-dihydro-5H-benzo[7]annulen-3-ol] — the same, 2 nM
- [O-][S+](CCCN(CCCO)CCCCCCC1=C(c2ccccc2)CCCc2cc(O)ccc21)CCCC(F)(F)C(F)(F)F (racemic) [Example 72, 9-{6-[(3-Hydroxypropyl){3-[(RS)-(4,4,5,5,5-pentafluoropentyl)sulphinyl]propyl}amino]hexyl}-8-phenyl-6,7-dihydro-5H-benzo[7]annulen-3-ol] — 2-fold higher, 4 nM
- CC(C)(O)CN(CCCCCCC1=C(c2ccccc2)CCCc2cc(O)ccc21)CCC[S+]([O-])CCCC(F)(F)C(F)(F)F (racemic) [Example 74, 9-{6-[(2-Hydroxy-2-methylpropyl){3-[(RS)-(4,4,5,5,5-pentafluoropentyl)sulphinyl]propyl}amino]hexyl}-8-phenyl-6,7-dihydro-5H-benzo[7]annulen-3-ol] — 1.5-fold higher, 3 nM
- CCN(CCCCCCC1=C(c2ccccc2)CCCc2cc(O)ccc21)CCC[S+]([O-])CCC(F)(F)F (racemic) [Example 76, 9-[6-(Ethyl{3-[(RS)-(3,3,3-trifluoropropyl)sulphinyl]propyl}amino)hexyl]-8-phenyl-6,7-dihydro-5H-benzo[7]annulen-3-ol] — 12-fold higher, 23 nM
